In patent publication EP4613730A1, “LIPIDIC ALKYNYLCARBINOLS WITH ANTI-BACTERIAL AND ANTI-TUBERCULOSIS ACTIVITY” (priority 2024, dated 2025):
In brackets after ≈: the same amount, converted by molar mass. Where two headings read alike, the source gives them in different places.

Legend:
Type in all cases: cell-based
[1] = tested on: Mycobacterium tuberculosis strain H37Rv; assay: Mycobacterial growth inhibition assay (colorimetric MTT micro assay, MIC)
[2] = Cytotoxicity evaluation on HCT-116 cell line (SRB); conditions: human, HCT-116 colon cancer cells, HCT-116 cells, 72 hours treatment, read-out: Anti-HCT116 CC50
Procedure: (§1) The biological activity of the compounds of the present invention were evaluated. The activity against mycobacteria (Mtb) was assessed by minimum inhibitory concentration values (MIC, µM) determination. The selectivity index (SI) is defined as: SI = (CC50)/(MIC) [formula] wherein CC50 refers to the half maximal cytotoxic concentration of compounds towards particular eukaryotic cells, either for HCT116 cells and/or VERO cells; MIC refers to the minimum inhibitory concentration of the compounds towards mycobacteria.
Human HCT-116 colon cancer cells were seeded in 96-well plates (2500 cells/well) 24 hours before being treated for 72 hours with the tested compounds. Cells were grown and treated in DMEM 10% FBS. For each compound, 11 concentrations, corresponding to twofold serial dilutions from the maximum concentration, were evaluated, with each concentration tested in duplicate. DMSO was set at 0.5% final concentration in each well, including in the untreated conditions. At the end of the treatment, cells were fixed 1 hour at 4°C by addition of cold 10 % trichloroacetic acid to a final 3.33 % concentration, then washed 4 times with water. The plates were dried and the cells stained for 30 minutes with 0.057 % (wt/vol) Sulforhodamine B (SRB) in 1% acetic acid, then washed 4 times with 1% acetic acid and dried. The dye was resuspended by a 1 h 30 incubation in 200 µL of 10 mM Tris-base and the absorbance at 490 nm measured with a plate reader (µquant, Bio-tek). For normalization, the background value was subtracted to each value, the duplicates averaged and the untreated condition set to 100% cell viability. CC50 were computed from at least three independent experiments using the GraphPad Prism software using a non-linear regression to a four-parameter logistic curve (log[inhibitor] vs response; variable slope).

[3] = Cytotoxicity evaluation on Vero cell line (MTT); conditions: African green monkey, Vero cells, read-out: Anti-VERO CC50
Procedure: as §1
Cytotoxicity evaluation of the tested molecules by MTT assay was performed on the Vero cell line. Briefly, cells (5.10^4 cells/mL) in 100 µL of complete medium [MEM supplemented with 10% fetal calf serum (FCS), 2 mM L-glutamine and antibiotics (100U/mL penicillin and 100 µg/mL streptomycin)] were seeded into each well of 96-well plates and incubated at 37 °C in a humidified 5% CO2 with 95% air atmosphere. After a 24 h incubation, 100 µL of medium with various product concentrations and appropriate controls were added and the plates were incubated for 72 h at 37 °C. Each plate-well was then microscope-examined for detecting possible precipitate formation before the medium was aspirated from the wells. 100 µL of MTT solution (0.5 mg/mL in complete MEM) were then added to each well. Cells were incubated for 1 h at 37 °C and the MTT solution was then removed, and DMSO (100 µL/well) was added to dissolve the resulting formazan crystals. Plates were shaken vigorously (300 rpm) for 5 min. The absorbance was measured at 570 nm with a microplate spectrophotometer (BIOTEK Eon). DMSO was used as blank and SDS as positive control. CC50 were calculated by non-linear regression analysis processed on dose-response curves, using TableCurve 2D V5 software.

E. coli = assay: Antibacterial activity MIC, E. coli; conditions: Escherichia coli
M. smegmatis = assay: Antibacterial activity MIC, M. smegmatis; conditions: Mycolicibacterium smegmatis
C. glutamicum = assay: Antibacterial activity MIC, C. glutamicum; conditions: Corynebacterium glutamicum
M. kansasii = assay: Antibacterial activity MIC, M. kansasii; conditions: Mycobacterium kansasii
M. abscessus = assay: Antibacterial activity MIC, M. abscessus; conditions: Mycobacteroides abscessus
[4] = M. tuberculosis H37Rv, 7H9 broth, 6 days incubation then MTT 24 h, read-out: Anti-Mtb MIC

SMILES	MIC [1, 4] [µM]	CC50 at 72 h [2] [µM]	CC50 at 72 h [3] [µM]	MIC ([1]; read-out: Anti-Mtb MIC) [µM]	also measured
CCCCCCCCCCC[C@@H](O)C#C[C@H](O)CC [(R,R)-6, (3R,6R)-heptadec-4-yne-3,6-diol]	2.5 (≈ 0.671 µg/mL)	–	–	–	–
C=C=CC(O)C#CCCCCCCCCCCCC (stereo not shown) [Compound 19, Octadeca-1,2-dien-5-yn-4-ol]	2.5 (≈ 0.656 µg/mL)	2.7	–	–	–
CCCCCCCCCCC(O)CC#CC(O)CC (stereo not shown) [Compound 16, Heptadec-4-yne-3,7-diol]	5 (≈ 1.34 µg/mL)	51	75	–	–
C=C=CC(O)C#CCCCCCCCCC (stereo not shown) [Compound 28]	–	–	–	–	MIC (E. coli): > 10 µM; MIC (M. smegmatis): > 10 µM; MIC (C. glutamicum): > 10 µM; MIC ([1]; read-out: Antibacterial activity MIC M. tuberculosis): 5 µM (≈ 1.1 µg/mL); MIC (M. kansasii): 10 µM (≈ 2.2 µg/mL)
C=C=CC(O)C#CC(O)CCCCCCCCCCC (stereo not shown) [Compound 3, Octadeca-1,2-dien-5-yne-4,7-diol]	–	9	8	2.5 (≈ 0.696 µg/mL)	–
CCCCCCCCCCCC(O)C#CC(O)C(CC)CC (stereo not shown) [Compound 9, 3-Ethyloctadec-5-yne-4,7-diol]	5 (≈ 1.55 µg/mL)	20	–	–	–
C#CC(O)C#CC(O)CCCCCCCCCCC (stereo not shown) [Compound 4, Heptadeca-1,4-diyne-3,6-diol]	–	4	2.5	0.3 (≈ 0.0793 µg/mL)	–
C#CC(O)C#CCCCCCCCCCCCC (stereo not shown) [Compound 20, Heptadeca-1,4-diyn-3-ol]	–	0.1	0.8	1.2 (≈ 0.298 µg/mL)	–
C=C=CC(O)C#CCC(O)CCCCCCCCCC (stereo not shown) [Compound 13, Octadeca-1,2-dien-5-yne-4,8-diol]	–	12	–	0.6 (≈ 0.167 µg/mL)	–
CCCCCCCCCCCC(O)C#CC(O)c1ccccc1 (stereo not shown) [Compound 5, 1-Phenylpentadec-2-yne-1,4-diol]	1.25 (≈ 0.396 µg/mL)	50	46.5	–	–
CCCCCCCCCCCC(O)C#CC(O)CC (stereo not shown) [Compound 6, Heptadec-4-yne-3,6-diol]	2.5 (≈ 0.671 µg/mL)	40	43.2	–	MIC ([1]; M. tuberculosis (Table 4), read-out: Antibacterial activity MIC M. tuberculosis): 2.5 µM (≈ 0.671 µg/mL); MIC (M. abscessus): 10 µM (≈ 2.68 µg/mL)
CCCCCCCCCCCCC#CC(O)C(C)(C)C (stereo not shown) [Compound 24, 2,2-Dimethylheptadec-4-yn-3-ol]	> 10	60	–	–	–
CCCCCCCCCCC[C@H](O)C#C[C@@H](O)CC [(S,S)-6, (3S,6S)-heptadec-4-yne-3,6-diol]	2.5 (≈ 0.671 µg/mL)	–	–	–	–
CCCCCCCCCCC[C@@H](O)C#C[C@@H](O)CC [(S,R)-6, (3S,6R)-heptadec-4-yne-3,6-diol]	2.5 (≈ 0.671 µg/mL)	–	–	–	–
CCCCCCCCCCC(O)CC#CC(O)c1ccccc1 (stereo not shown) [Compound 15, 1-Phenylpentadec-2-yne-1,5-diol]	2.5 (≈ 0.791 µg/mL)	41	75	–	–
C=CC(O)C#CCCCCCCCCCCCC (stereo not shown) [Compound 18, Heptadec-1-en-4-yn-3-ol]	–	0.2	1	2.5 (≈ 0.626 µg/mL)	–
C=CC(O)C#CCC(O)CCCCCCCCCC (stereo not shown) [Compound 12, Heptadec-1-en-4-yne-3,7-diol]	–	2	12.5	1.25 (≈ 0.333 µg/mL)	–
CCCCCCCCCCCC(O)C#CC(O)C(C)(C)C (stereo not shown) [Compound 8, 2,2-Dimethylheptadec-4-yne-3,6-diol]	5 (≈ 1.48 µg/mL)	20	–	–	–
CCCCCCCCCCCCC#CC(O)C1CCCC1 (stereo not shown) [Compound 26, 1-Cyclopentylpentadec-2-yn-1-ol]	> 10	100	–	–	–
